The source of these data is patent US20260226103A1, “MODIFIED AMINO ACIDS AND USES THEREOF” (priority 2022, published 2026).

Each structure is given as a SMILES string. Square brackets hold non-standard residues; d marks the D form. Peptide text beside a SMILES is read from it. * marks the point of attachment. X1 = O=C(O)c1cc(NC(=S)*)ccc1-c1c2ccc(=O)cc-2oc2cc(O)ccc12; aIle = CC[C@@H](C)[C@H](N)C(=O)O; dCit = NC(=O)NCCC[C@@H](N)C(=O)O; X2 = N=C(N)c1ccc(C(=O)*)cc1; Dap = NC[C@H](N)C(=O)O; Ahx = NCCCCCC(=O)O; βAla = NCCC(=O)O

In series [1] the test system is HeLa cells. The series can be described thus: Cellular distribution by confocal microscopy. Particulars: 5 μM fluorescein-tagged CPP, 4 h. It is filed as cell-based. How it is done: HeLa cells were cultured in 8 well plates (Ibidi plates) (3.5×10^4 cells per well) for 24 h. […] After 3.5 h incubation, Hoescht 33258 was added at a concentration of 5.6 μM and cells incubated at 37° C. for the final 0.5 h. Cells were removed from the incubator and media removed. Each well was then washed with serum and phenol red free media (2×200 μL) then incubated with 4% formaldehyde in PBS (200 μL) for 20 min at room temperature. After incubation the 4% formaldehyde solution was removed and PBS (200 μL) added to each well. The cells were then imaged using a Leica S8 confocal microscope. Excitation/emission was set at 352 nm/461 nm for Hoescht 33258 imaging and 495 nm/519 nm for FITC labelled peptides. Images were processed using ImageJ software. Images were ‘rolling ball’ averaged across the set for each channel to remove background fluorescence.

Series [2] deals with HeLa cells. Nature of the series: Cell viability AlamarBlue assay. Format: cell-based. The note with it: for cytotoxicity / tolerability (in words): HeLa cells, at or up to 100 μM. As to the method:
(§1) HeLa, U2OS or HepG2 cells were cultured in 96 well plates (2.6×10^3 cells per well) for 24 h. […] The experiments were performed in triplicate for each concentration. AlamarBlue® was then added to each well (0.5 mM, 10 μL, 10% v/v) and incubated for a further 6 h for HeLa and HepG2 cells and 24 h for U2OS cells. Cells were then analysed using a HIdex plate reader with laser excitation/emission set at 560 nm/595 nm. Fluorescence of untreated cells were used as a 100% viable control, with 1% Triton X used as a negative control, and viability of cells were calculated as a percentage of the control fluorescence values using OriginPro 2019b software.

In series [3] the test system is HeLa cells. Nature of the series: Cell uptake of FITC-peptides by flow cytometry. Format: cell-based. The note with it: for time of maximum uptake: 37° C., 1 hr vs 4 hr. A general note: Flow cytometry measures light scatter and fluorescence of single cells or particles in a stream.
Procedure: (§2) HeLa and U2OS cells were maintained in medium consisting of Dulbecco's modified Eagle's medium (DMEM), 10% FBS, 1% L-Glutamine and 1% penicillin/streptomycin at pH 7.4. […] Cells were cultured in a humidified incubator at 37° C. with 5% CO2 atmosphere.
HeLa or U2OS cells were cultured in 24 well plates (4.5×10^5 cells per well) for 24 h. On the day of the experiment, the cells were incubated with 5 μM FITC-peptide in DMEM with 10% FBS at 37° C. or 4° C. for required time. The media was then removed and wells were washed with PBS (2×500 μL per well) and then detached from the plate with TrypLE Xpress (500 μL per well). PBS containing 2% bovine serum albumin (500 μL) was added to each well and cells transferred to 5 mL polystyrene FACS tubes. Cells were centrifuged (5 min, 5000 rpm) and washed with PBS containing 2% bovine serum albumin (2×500 μL) before being suspended in PBS containing 2% bovine serum albumin (1.00 mL per FACS tube).
(§3) Cells were finally analysed on a Thermo fisher Attune NxT flow cytometer with laser excitation/emission set at 490 nm/519 nm and a flow rate of 200 μL min^−1. Flow cytometry data was analysed using FlowJo software with gating set at a range of 51K-285K side scatter and 251K-815K for forward scatter variance for every sample. Median fluorescence intensity values were calculated from the gating range using FlowJo.
(§4) Median fluorescence values reported were normalised by subtracting average background fluorescence at 490 nm/519 nm of a set of untreated cells (ran with every experiment) from the value of each FITC labelled peptide.
Series [4] has as its system U2OS cells. Particulars: U2OS cell line.
Procedure: as §2
HeLa or U2OS cells were cultured in 24 well plates (4.5×10^5 cells per well) for 24 h. On the day of the experiment, the cells were incubated with 5 μM FITC-peptide in DMEM with 10% FBS at 37° C. or 4° C. for required time. The media was then removed and wells were washed with PBS (2×500 μL per well) and then detached from the plate with TrypLE Xpress (500 μL per well). PBS containing 2% bovine serum albumin (500 μL) was added to each well and cells transferred to 5 mL polystyrene FACS tubes. […]
as §3, §4
The nature of series [5]: Cell viability AlamarBlue assay. Format: cell-based. The note with it: human, HeLa cells, 24 h. How it is done: as §1
(Alamar Blue is a resazurin reagent that responds to reducing activity.)

For series [6] the following is noted: pH of 7.4; cited from earlier work.

For the compound `CC[C@@H](C)[C@H](NC(=O)[C@H](CC(C)C)NC(=O)[C@@H]1CCCN1C(=O)CCCCCNC(=S)Nc1ccc(-c2c3ccc(=O)cc-3oc3cc(O)ccc23)c(C(=O)O)c1)C(=O)N[C@@H](Cc1ccc(O)cc1)C(=O)N[C@@H](CC(C)C)C(=O)N[C@@H](CCCNC(=N)N)C(=O)N[C@@H](CC(C)C)C(=O)N[C@@H](CC(C)C)C(=O)N[C@@H](CCCNC(=N)N)C(=O)NCC(N)=O` [TP-2, FITC-XPLIYLRLLRG] ({X1-Ahx}-PL[aIle]YLRLLRG-NH2), the “cellular distribution profile (in words)” value in series [1] was “extensively distributed throughout the cytoplasm”. Moreover, the “cytotoxicity / tolerability (in words)” value in series [2] was “well tolerated”.

`CC(C)C[C@H](NC(=O)[C@H](CC(C)C)NC(=O)[C@H](CCCNC(=N)N)NC(=O)[C@H](CCCNC(=N)N)NC(=O)[C@H](CC(C)C)NC(=O)[C@H](CC(C)C)NC(=O)[C@H](CCCNC(=N)N)NC(=O)CCCCCNC(=S)Nc1ccc(-c2c3ccc(=O)cc-3oc3cc(O)ccc23)c(C(=O)O)c1)C(=O)N[C@@H](CCCNC(=N)N)C(N)=O` [Pep-2, FITC-XRLLRRLLR] (HELM PEPTIDE1{[O=C(O)c1cc(NC(=S)[*:2])ccc1-c1c2ccc(=O)cc-2oc2cc(O)ccc12].[O=C(CCCCCN[*:1])[*:2]].R.L.L.R.R.L.L.R.[am]}$$$$V2.0): the “cytotoxicity relative to Pep-1 (in words)” value in series [2] (at 100 M (so in the source)) is on record as “displaying cytotoxicity”.

Take `CC[C@@H](C)[C@H](NC(=O)[C@H](CC(C)C)NC(=O)[C@@H]1CCCN1C(=O)CCCCCNC(=S)Nc1ccc(-c2c3ccc(=O)cc-3oc3cc(O)ccc23)c(C(=O)O)c1)C(=O)N[C@@H](Cc1ccc(O)cc1)C(=O)N[C@@H](CC(C)C)C(=O)N[C@@H](CNC(=O)c1ccc(C(=N)N)cc1)C(=O)N[C@@H](CC(C)C)C(=O)N[C@@H](CC(C)C)C(=O)N[C@@H](CNC(=O)c1ccc(C(=N)N)cc1)C(=O)NCC(N)=O` [Am-TP-2, FITC-XPLIYLAmLLAmG] ({X1-Ahx}-PL[aIle]YL[Dap](X2)LL[Dap](X2)G-NH2): in series [3], the “decrease in cellular uptake at 4° C. relative to 37° C.” value was found to be 30 fold and the “uptake at 4 hr incubation relative to 1 hr (in words)” value is reported as “enhanced uptake”. Further, in series [3] (5 μM FITC-peptide), the “increase in uptake relative to TP-2” value stood at 4 fold. In series [1], the “cellular distribution profile (in words)” value was “cytoplasmic distribution profile”. Also, in series [4], the “uptake trend (in words)” value was “enhanced uptake”.

In general, viability refers to a read-out of living cells in per cent, often relative to untreated cells. Take `CC[C@H](C)[C@H](NC(=O)[C@H](CC(C)C)NC(=O)[C@H](Cc1ccccc1)NC(=O)[C@H](CCC(N)=O)NC(=O)[C@H](Cc1ccc(O)cc1)NC(=O)[C@H](CCCNC(=N)N)NC(=O)[C@H](CCCNC(=N)N)NC(=O)CCNC(=O)[C@H](CCCNC(=N)N)NC(=O)[C@H](CCCNC(=N)N)NC(=O)CCCCCNC(=O)[C@H](CCCNC(=N)N)NC(=O)CCCCCNC(=S)Nc1ccc(-c2c3ccc(=O)cc-3oc3cc(O)ccc23)c(C(=O)O)c1)C(=O)N[C@@H](CCCNC(=N)N)C(=O)NCCC(=O)N[C@@H](CCCNC(=N)N)C(=O)NCCCCCC(=O)N[C@@H](CCCNC(=N)N)C(N)=O` [PiP6, FITC-XRXRRBRRYQFLIRBRXR] ({X1-Ahx}-R[Ahx]RR[βAla]RRYQFLIR[βAla]R[Ahx]R-NH2): in series [3] (5 μM FITC-peptide), the “time of maximum uptake” value was determined as 1 h. Besides, the “cellular distribution profile (in words)” value in series [1] is reported as “high level of accumulation within the nucleus”. The viability at 24 h, 30 µM in series [5] (30 μM FITC-peptide) is 15%. The viability at 24 h, 100 µM in series [5] (100 μM FITC-peptide) was 5%.

Take `N=C(N)NCCC[C@H](NC(=O)[C@H](CCCNC(=N)N)NC(=O)[C@H](CCCNC(=N)N)NC(=O)[C@H](CCC(N)=O)NC(=O)[C@H](CCCNC(=N)N)NC(=O)[C@H](CCCNC(=N)N)NC(=O)[C@H](CCCCN)NC(=O)[C@H](CCCCN)NC(=O)[C@H](CCCNC(=N)N)NC(=O)CCCCCNC(=S)Nc1ccc(-c2c3ccc(=O)cc-3oc3cc(O)ccc23)c(C(=O)O)c1)C(N)=O` [Tat, FITC-XRKKRRQRRR]: the “time of maximum uptake” value in series [3] (5 μM FITC-peptide) amounted to 1 h. Further, the “cellular distribution profile (in words)” value in series [1] was “accumulating in puncta”. The “cytotoxicity / tolerability (in words)” value in series [2] was “moderate levels of toxicity”.

Regarding `CC[C@@H](C)[C@H](NC(=O)[C@H](CC(C)C)NC(=O)[C@@H]1CCCN1C(=O)CCCCCNC(=S)Nc1ccc(-c2c3ccc(=O)cc-3oc3cc(O)ccc23)c(C(=O)O)c1)C(=O)N[C@@H](CC(C)C)C(=O)N[C@@H](CC(C)C)C(=O)N[C@@H](CCCNC(=N)N)C(=O)N[C@@H](CC(C)C)C(=O)N[C@@H](CC(C)C)C(=O)N[C@@H](CCCNC(=N)N)C(=O)NCC(N)=O` [TP-1, FITC-XPLILLRLLRG] ({X1-Ahx}-PL[aIle]LLRLLRG-NH2), the “cellular distribution profile (in words)” value in series [1] is “extensively distributed throughout the cytoplasm”. In addition, the “cytotoxicity / tolerability (in words)” value in series [2] is “well tolerated”.

For the compound `CC[C@@H](C)[C@H](NC(=O)[C@H](CC(C)C)NC(=O)[C@@H]1CCCN1C(=O)CCCCCNC(=S)Nc1ccc(-c2c3ccc(=O)cc-3oc3cc(O)ccc23)c(C(=O)O)c1)C(=O)N[C@@H](Cc1ccc(O)cc1)C(=O)N[C@@H](CC(C)C)C(=O)N[C@H](CCCCN)C(=O)N[C@@H](CC(C)C)C(=O)N[C@@H](CC(C)C)C(=O)N[C@H](CCCCN)C(=O)NCC(N)=O` [TP-3, FITC-XPLIYLKLLKG] ({X1-Ahx}-PL[aIle]YL[dK]LL[dK]G-NH2), the “cell uptake relative to TP-2 (in words)” value in series [3] (5 μM FITC-peptide) was “no difference in cell uptake”.

As for `CC[C@@H](C)[C@H](NC(=O)[C@H](CC(C)C)NC(=O)[C@@H]1CCCN1C(=O)CCCCCNC(=S)Nc1ccc(-c2c3ccc(=O)cc-3oc3cc(O)ccc23)c(C(=O)O)c1)C(=O)N[C@@H](Cc1ccc(O)cc1)C(=O)N[C@@H](CC(C)C)C(=O)N[C@H](CCCNC(=N)N)C(=O)N[C@@H](CC(C)C)C(=O)N[C@@H](CC(C)C)C(=O)N[C@H](CCCNC(=N)N)C(=O)NCC(N)=O` [TP-5, FITC-XPLIYLrLLrG] ({X1-Ahx}-PL[aIle]YL[dR]LL[dR]G-NH2), in series [3] (5 μM FITC-peptide), the “cell uptake relative to TP peptides containing L-Arg (TP-1 and TP-2) (in words)” value was “enhanced uptake”; the “cell uptake relative to TP-2 (in words)” value is “further reduction in uptake”.

Consider `N=C(N)NCCC[C@H](N)C(=O)O` [arginine], for which, in series [6], the “Log D or c Log D” value is recorded as “approximately −3.5”.

`CC[C@@H](C)[C@H](NC(=O)[C@H](CC(C)C)NC(=O)[C@@H]1CCCN1C(=O)CCCCCNC(=S)Nc1ccc(-c2c3ccc(=O)cc-3oc3cc(O)ccc23)c(C(=O)O)c1)C(=O)N[C@@H](Cc1ccc(O)cc1)C(=O)N[C@@H](CC(C)C)C(=O)N[C@H](CCCNC(N)=O)C(=O)N[C@@H](CC(C)C)C(=O)N[C@@H](CC(C)C)C(=O)N[C@H](CCCNC(N)=O)C(=O)NCC(N)=O` [TP-4, FITC-XPLIYLCitLLCitG] ({X1-Ahx}-PL[aIle]YL[dCit]LL[dCit]G-NH2): in series [3] (5 μM FITC-peptide), the “cell uptake relative to TP-2 (in words)” value is “reduction in cellular uptake”.
